Experimental data taken from PMC9034499, “RORγt agonist enhances anti-PD-1 therapy by promoting monocyte-derived dendritic cells through CXCL10 in cancers” (Journal of Experimental & Clinical Cancer Research : CR, 2022).
pEC50: −log10 of the molar value. Values joined by “and” are separate entries in the source; they are usually repeats but may differ in a detail not shown here. Identical values can stand only once.

Assays:
hRORγt LBD = target: T1, hRORγt LBD (Homo sapiens, UniProt P51449); assay: RORγt GAL4 cell-based reporter gene assay; conditions: HEK293T host cells; read-out: EC50, RORγt agonist activity in Gal4 reporter gene assay
T1 construct: expressed in transfected cells; host or cells: HEK293T
T1 sequence (P51449 269-508 limits assumed): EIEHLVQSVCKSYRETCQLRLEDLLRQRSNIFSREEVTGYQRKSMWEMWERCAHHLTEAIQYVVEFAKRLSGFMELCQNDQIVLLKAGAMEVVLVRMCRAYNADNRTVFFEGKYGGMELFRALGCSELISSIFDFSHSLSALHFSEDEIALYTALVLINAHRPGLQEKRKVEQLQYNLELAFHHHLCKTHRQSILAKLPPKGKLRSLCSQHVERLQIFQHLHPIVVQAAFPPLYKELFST
Description: The hRORγt LBD coding sequence was inserted into a pBIND expression vector (Promega, E1581) to express the ROR-GAL4 binding domain chimeric receptors. This expression vector and a reporter vector (pGL4.35, which carries a stably integrated GAL4 promoter-driven luciferase reporter gene [luc2P/9XGAL4 UAS/Hygro]) were co-transfected into the HEK293T host cells. The assay was performed according to a previous study. EC50 of the sigmoidal fits were analyzed using Prism 5 and a four-parameter logistic fit equation, Y = bottom + (top–bottom) / (1 + 10(logEC50 − X) × hill slope). "X" is the log of compound concentration, and "Y" is the response, which increases as X increases. Y starts at "bottom" and goes to "top" with a sigmoid shape.

mouse Th17 cells = assay: IL-17A secretion by Th17 cells (ELISA); assay type: cell-based; conditions: ELISA of supernatant, 0 to 160 nM
Description: CD4^+ CD25^−CD62L^high cells were purified from C57BL/6 splenocytes using an EasySep Mouse Naïve CD4^+ T cell isolation kit from STEMCELL Technologies (Vancouver, Canada), and they were differentiated into Th17 cells (TGF-β, 2 ng/ml; IL-6, 20 ng/ml; Anti-IFN-γ, 10 μg/ml; Anti-IL-4, 10 μg/ml, BioLegend, San Diego, CA) in the presence of plate-bound anti-CD3 (5 μg/ml, BioLegend, San Diego, CA) and anti-CD28 (2 μg/ml, BioLegend, San Diego, CA). The cells were harvested and processed for cytokine analysis at the RNA or protein level using real-time qPCR, flow cytometry, and ELISA on day five. […]
The intracellular cytokines by TILs or in vitro differentiated T helper cells were quantified after restimulation with PMA plus ionomycin in the presence of GolgiStop for 6 h. The total RNA was isolated using the improved TRizol-based (Sigma, Darmstadt, Germany) method for qPCR analysis, and the mRNA expression was analyzed using a StepOnePlus (Life Technologies, Carlsbad, USA) real-time PCR instrument using housekeeping gene β-actin and Gapdh internal standards. qPCR was performed using A Power SYBR Green PCR Master Mix (Accurate Biology, Hunan, China) and two-cycle amplification for 40 cycles followed by the melting curve. […]

LLC tumors = assay: LLC syngeneic tumor model; assay type: in vivo, C57BL/6 mice
Description: All experiments were approved by the IACUC and performed with strict adherence to a series of documents and standards of procedures (SOPs) relative to animal ethics and welfare. The mice were housed in cages with controlled temperature (25 ± 2 °C) and humidity (65 ± 5%) under a 12 h light/dark cycle. After a one-week adaptation period, six to eight-week-old female mice were injected s.c. with LLC (5 × 10^5), B16F10 (2 × 10^5), or MC38 (2 × 10^6) cells into the lower right flank. Approximately seven days after the subcutaneous injection of tumor cells, the mice were randomly divided into four groups. RORγt agonist 8-074, LYC-55716 (BioChemPartner, Shanghai, China) and anti-PD-1 (BioXCell, New Hampshire, USA) treatment commenced when the average tumor size reached 50 mm^3 for LLC and B16F10 and 150 mm^3 for MC38. The 5 × 10^5 LLC cells were transplanted subcutaneously into the right flank of the C57BL/6 mice seven days after being transplanted, and the mice were randomly divided into four groups. Anti-PD-1 was administrated one day after the RORγt agonist was treated (Clone: PMP1-14; 200 μg via intraperitoneal injection on day 1, 4, 7, 10, 13 after treatment with 8-074). For the CD8^+ T cell depletion, mice were injected intraperitoneally (i.p.) with 400 μg of anti-CD8α (YTS 169.4; BioXCell, New Hampshire, USA) one day before and dosed per week after the anti-PD-1 treatment. Mice with established tumors were treated using intraperitoneal injection of 8-074 (indicated dose), LYC-55716 (50 mg/kg) or DMSO (SIGMA, New Jersey, USA) every day. […] The tumor volume based on the caliper measurements was calculated using the modified ellipsoidal equation, where the tumor volume = 1/2 (length × width ^2) and the length was the longer dimension. […] TGI was calculated using the equation: [(Ct – C0) – (Tt – T0)] / (Ct – C0) × 100, where Ct = the mean tumor volume of the control group at the time (t); C0 = the mean tumor volume of the control group at t0; Tt = mean tumor volume of the treatment group at t; and T0 = mean tumor volume of the treatment group at t0.

- pEC50 (hRORγt LBD): 6.92 and 6.93
- pEC50 (mouse Th17 cells): 7.64
SMILES: CCS(=O)(=O)c1ccc(CC(=O)Nc2ccc(-c3ccc(CC(C)C)c(C#N)c3)c(C(F)(F)F)c2)cc1 [8-074]
- TGI (LLC tumors; LLC combination study Fig. 3e, anti-PD-1 10 mg/kg every three days i.p., 8-074 i.p. every day): 59.3%
- body weight of mice (LLC tumors; LLC model, dose escalation): slight body weight loss
- Tumor growth inhibition (TGI) (LLC tumors; LLC, 50 mg/kg i.p. QD over two weeks, Fig. 3a): 55.6%
